Source: PubChem BioAssay AID248 (DTP/NCI, 2004)
Inconclusive results and toxic doses are left out. Rule as the data show it: active = T/C of 150% or more; inactive = T/C below 125%.

Tested on: L1210 leukemia ip in BDF1 mice, survival T/C
Test: NCI In Vivo Anticancer Drug Screen. Data for tumor model L1210 Leukemia (intraperitoneal) in B6D2F1 (BDF1) mice
Conditions: endpoint: mean survival time, higher = longer survival
Method in brief: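 Tumor was transplanted into mice, which were then dosed with test compound or vehicle alone. Survival was recorded for each group, and the treated figure was expressed relative to the control figure.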

[1] = dose: 100.0 mg/kg/injection, schedule: Q01DX001 (ip), vehicle: Klucel (hydroxypropylcellulose) (HPC)
[2] = dose: 200.0 mg/kg/injection, schedule: Q01DX001 (ip), vehicle: Klucel (hydroxypropylcellulose) (HPC)
[3] = dose: 400.0 mg/kg/injection, schedule: Q01DX001 (ip), vehicle: Klucel (hydroxypropylcellulose) (HPC)
[4] = dose: 100.0 mg/kg/injection, schedule: Q01DX001 (ip), vehicle: saline
[5] = dose: 200.0 mg/kg/injection, schedule: Q01DX001 (ip), vehicle: saline
[6] = dose: 400.0 mg/kg/injection, schedule: Q01DX001 (ip), vehicle: saline
[7] = dose: 100.0 mg/kg/injection, schedule: Q01DX009 (ip), vehicle: saline with Tween-80
[8] = dose: 200.0 mg/kg/injection, schedule: Q01DX009 (ip), vehicle: saline with Tween-80
[9] = dose: 100.0 mg/kg/injection, schedule: Q04DX002 (ip), vehicle: saline with Tween-80
[10] = dose: 200.0 mg/kg/injection, schedule: Q04DX002 (ip), vehicle: saline with Tween-80
[11] = dose: 400.0 mg/kg/injection, schedule: Q04DX002 (ip), vehicle: saline with Tween-80
[12] = dose: 100.0 mg/kg/injection, schedule: Q01DX009 (ip), vehicle: Klucel (hydroxypropylcellulose) (HPC)
[13] = dose: 200.0 mg/kg/injection, schedule: Q01DX009 (ip), vehicle: Klucel (hydroxypropylcellulose) (HPC)
[14] = dose: 400.0 mg/kg/injection, schedule: Q01DX009 (ip), vehicle: Klucel (hydroxypropylcellulose) (HPC)
[15] = dose: 50.0 mg/kg/injection, schedule: Q01DX001 (ip), vehicle: saline
[16] = dose: 100.0 mg/kg/injection, schedule: Q04DX003 (ip), vehicle: saline with Tween-80
[17] = dose: 200.0 mg/kg/injection, schedule: Q04DX003 (ip), vehicle: saline with Tween-80
[18] = dose: 400.0 mg/kg/injection, schedule: Q04DX003 (ip), vehicle: saline with Tween-80

Measured: T/C

CCC1CN2CCc3cc(OC)c(OC)cc3C2CC1CC1NCCc2cc(OC)c(OC)cc21 (stereo unspecified)
inactive: dose: 2.0 mg/kg/injection, schedule: Q04DX003 (ip), vehicle: water 93 % of control | dose: 4.0 mg/kg/injection, schedule: Q04DX003 (ip), vehicle: water 98 % of control | dose: 8.0 mg/kg/injection, schedule: Q04DX003 (ip), vehicle: water 94 % of control | dose: 16.0 mg/kg/injection, schedule: Q04DX003 (ip), vehicle: water 104 % of control | dose: 32.0 mg/kg/injection, schedule: Q04DX003 (ip), vehicle: water 102 % of control | dose: 64.0 mg/kg/injection, schedule: Q04DX003 (ip), vehicle: water 100 % of control

Cc1ccc(C(=O)C2OC2c2ccccc2)cc1 (stereo unspecified)
inactive: [1] 97 % of control | [2] 95 % of control | [3] 89 % of control

CCOC(=O)COc1ccc(-c2ccccc2)cc1Br
inactive: dose: 100.0 mg/kg/injection, schedule: Q04DX002 (ip), vehicle: Klucel (hydroxypropylcellulose) (HPC) 104 % of control | dose: 200.0 mg/kg/injection, schedule: Q04DX002 (ip), vehicle: Klucel (hydroxypropylcellulose) (HPC) 104 % of control | dose: 400.0 mg/kg/injection, schedule: Q04DX002 (ip), vehicle: Klucel (hydroxypropylcellulose) (HPC) 104 % of control

CC1CN=C(c2ccc(O)c(O)c2)S1 (stereo unspecified)
inactive: dose: 100.0 mg/kg/injection, schedule: Q04DX002 (ip), vehicle: saline 107 % of control | dose: 200.0 mg/kg/injection, schedule: Q04DX002 (ip), vehicle: saline 107 % of control | dose: 400.0 mg/kg/injection, schedule: Q04DX002 (ip), vehicle: saline 100 % of control

CCCCC(O)(CCCC)CC(C)(C)C
inactive: dose: 100.0 mg/kg/injection, schedule: Q01DX001 (ip), vehicle: carboxymethylcellulose (CMC) 103 % of control | dose: 200.0 mg/kg/injection, schedule: Q01DX001 (ip), vehicle: carboxymethylcellulose (CMC) 92 % of control | dose: 400.0 mg/kg/injection, schedule: Q01DX001 (ip), vehicle: carboxymethylcellulose (CMC) 92 % of control

O=[N+]([O-])c1ccccc1CC1=NCCc2cc3c(cc21)OCO3
inactive: [4] 100 % of control | [5] 102 % of control | [6] 104 % of control

NC(N)=Nc1ccc(C(=O)O)cc1
inactive: [7] 107 % of control | [8] 103 % of control

O=C1OC2C(Br)CC(Br)CC2C=C1c1ccc([N+](=O)[O-])cc1 (stereo unspecified)
inactive: [9] 90 % of control | [10] 90 % of control | [11] 93 % of control

COc1cc([N+](=O)[O-])ccc1NC(=O)Oc1ccc(-c2ccccc2)cc1Cl
inactive: [12] 93 % of control | [13] 96 % of control | [14] 95 % of control

COc1cc2c(cc1OC)C(CCCCCCCC1NCCc3cc(OC)c(OC)cc31)NCC2 (stereo unspecified)
inactive: dose: 0.25 mg/kg/injection, schedule: Q01DX015 (ip), vehicle: saline 97 % of control | dose: 0.5 mg/kg/injection, schedule: Q01DX015 (ip), vehicle: saline 100 % of control | dose: 1.0 mg/kg/injection, schedule: Q01DX015 (ip), vehicle: saline 103 % of control | dose: 2.0 mg/kg/injection, schedule: Q01DX015 (ip), vehicle: saline 102 % of control | dose: 4.0 mg/kg/injection, schedule: Q01DX015 (ip), vehicle: saline 106 % of control | dose: 8.0 mg/kg/injection, schedule: Q01DX015 (ip), vehicle: carboxymethylcellulose (CMC) 91 % of control | dose: 16.0 mg/kg/injection, schedule: Q01DX015 (ip), vehicle: carboxymethylcellulose (CMC) 91 % of control | [15] 101 % of control | [4] 100 % of control

CCCCS(=O)(=O)N(CCC)CCC
inactive: [9] 93 % of control | [10] 93 % of control | [11] 97 % of control

CCOC(=O)C/C(=N\NC(=O)c1ccccc1O)C(=O)OCC
inactive: dose: 50.0 mg/kg/injection, schedule: Q01DX009 (ip), vehicle: Klucel (hydroxypropylcellulose) (HPC) 101 % of control | [12] 107 % of control | [13] 102 % of control | [14] 101 % of control

CCNC(=O)CCl
inactive: [4] 96 % of control | [5] 104 % of control

COc1nc(=O)n(C2CCCO2)cc1Br (stereo unspecified)
inactive: dose: 100.0 mg/kg/injection, schedule: Q01DX001 (ip), vehicle: other 107 % of control | dose: 200.0 mg/kg/injection, schedule: Q01DX001 (ip), vehicle: other 96 % of control | dose: 400.0 mg/kg/injection, schedule: Q01DX001 (ip), vehicle: other 98 % of control

Cc1cc(NS(=O)(=O)c2ccc(N=Nc3ccc(N)nc3N)cc2)nc(C)n1
inactive: [4] 102 % of control | [5] 105 % of control | [6] 100 % of control

Cc1csc[n+]1C
inactive: dose: 75.0 mg/kg/injection, schedule: Q01DX001 (ip), vehicle: saline 98 % of control | dose: 150.0 mg/kg/injection, schedule: Q01DX001 (ip), vehicle: saline 102 % of control

O=C1NC(=O)C(c2ccc(O)cc2)N1 (stereo unspecified)
inactive: [15] 105 % of control | [4] 100 % of control | [7] 91 % of control | [16] 103 % of control | [5] 97 % of control | [8] 87 % of control | [17] 100 % of control | [6] 108 % of control | [18] 94 % of control

c1ccc2c(c1)ccc1ccc3cccc[n+]3c12
inactive: dose: 1.25 mg/kg/injection, schedule: Q01DX001 (ip), vehicle: saline 93 % of control | dose: 2.5 mg/kg/injection, schedule: Q01DX001 (ip), vehicle: saline 102 % of control | dose: 5.0 mg/kg/injection, schedule: Q01DX001 (ip), vehicle: saline 108 % of control | dose: 10.0 mg/kg/injection, schedule: Q01DX001 (ip), vehicle: saline 102 % of control

NC(N)=NCCc1ccc(Cl)cc1
inactive: dose: 50.0 mg/kg/injection, schedule: Q01DX001 (ip), vehicle: Klucel (hydroxypropylcellulose) (HPC) 102 % of control

CCCCCCC(O)C/C=C\CCCCCCCCO (stereo unspecified)
inactive: dose: 100.0 mg/kg/injection, schedule: Q01DX009 (ip), vehicle: saline 121 % of control | dose: 100.0 mg/kg/injection, schedule: Q04DX003 (ip), vehicle: saline 101 % of control | dose: 200.0 mg/kg/injection, schedule: Q01DX009 (ip), vehicle: saline 115 % of control | dose: 200.0 mg/kg/injection, schedule: Q04DX003 (ip), vehicle: saline 99 % of control | dose: 400.0 mg/kg/injection, schedule: Q01DX009 (ip), vehicle: saline 103 % of control | dose: 400.0 mg/kg/injection, schedule: Q04DX003 (ip), vehicle: saline 104 % of control

Brc1ccc(C2CCCCC2)cc1
inactive: [16] 97 % of control | [17] 93 % of control | [18] 101 % of control

COC(=O)N1C2C3C(C)=C(C)C2(C)C3(C)S1(=O)=O (stereo unspecified)
inactive: [1] 93 % of control | dose: 100.0 mg/kg/injection, schedule: Q04DX003 (ip), vehicle: Klucel (hydroxypropylcellulose) (HPC) 101 % of control | [2] 93 % of control | dose: 200.0 mg/kg/injection, schedule: Q04DX003 (ip), vehicle: Klucel (hydroxypropylcellulose) (HPC) 106 % of control | [3] 97 % of control

COc1ccccc1CC(=O)Oc1ccccc1
inactive: [4] 97 % of control | [5] 96 % of control | [6] 102 % of control
